Series [1] is described as follows: Systemic availability of mexiletine in the dog from mexiletine prodrugs (oral gavage). Format: in vivo. As to conditions: for AUC of mexiletine / Cmax of mexiletine / T50% Cmax / F(rel): 1 mg/kg mexiletine free base; for AUC of mexiletine / Cmax of mexiletine / T50% Cmax: plasma mexiletine; for F(rel): relative to mexiletine. Here is the method: Test substances (i.e., mexiletine, and various mexiletine amino acid prodrugs) were administered by oral gavage to groups of two or some cases five dogs. The characteristics of the test animals are set out in Table 6.
Blood samples were taken at various times after administration and submitted to analysis for parent drug using a validated LC-MS-MS assay. Pharmacokinetic parameters derived from the plasma bioanalytical data were determined using Win Nonlin.

Series [2] can be described thus: Systemic availability of mexiletine in the cynomolgus monkey from mexiletine prodrugs (oral gavage). The class given is in vivo. As to conditions: 1 mg/kg mexiletine free base; for AUC of mexiletine / Cmax of mexiletine / T50% Cmax: plasma mexiletine; for F(rel): relative to mexiletine. The protocol: Test substances (i.e., mexiletine, and various mexiletine amino acid prodrugs) were administered by oral gavage to groups of two and, in one case, five male cynomolgus monkeys. Blood samples were taken at various times after administration and submitted to analysis for the parent drug using a validated LC-MS-MS assay. Pharmacokinetic parameters derived from the plasma bioanalytical data were determined using Win Nonlin.

Series [3] concerns patients with myotonic disorders. As to conditions: 1200 mg daily tocamide or 600 mg daily mexiletine, three divided doses; cited from earlier work.
For series [4] the following is noted: oral, cited from earlier work.
The nature of series [5]: In vitro stability of mexiletine prodrugs under conditions prevailing in the gut. Format: physicochemical. As to conditions: 0.1M phosphate buffer pH 7.4, 2 h.
Experiment in series [6]: as above
Format: physicochemical. As to conditions: HPLC; for Simulated gastric fluid (pH 1.1): % remaining after 2 h/37° C.: simulated gastric fluid pH 1.1, 2 h; for Simulated intestinal fluid (pH 6.8): % remaining after 2 h/37° C.: simulated intestinal fluid pH 6.8, 2 h. The protocol: To investigate if the prodrugs of the present invention are stable in conditions mimicking the gut, various mexiletine amino acid prodrugs were incubated at 37° C. in simulated gastric and simulated intestinal juice (USP defined composition) for 2 hours. The remaining concentrations of the prodrug were then assayed by HPLC.

Where a name gives a salt, the structure may show the parent alone. Read-outs that look alike come from different tables or passages of the source. Marks after values point to notes of the source that are not given here.

`CC(=O)N[C@@H](CCCCN)C(=O)NC(C)COc1c(C)cccc1C.Cl` (stereo partly drawn) [Mexiletine [(S)-N^α-acetyl-lysine] amide, Mexiletine [(S)—N^α-Acetyl-Lysine] Amide Hydrochloride]: the results for the AUC of mexiletine in series [1] and in series [2] were 893 ng·h/mL and 363 ng·h/mL, respectively. In addition, the Cmax of mexiletine in series [1] is 90.8 ng/mL; in series [2], 30.3 ng/mL. Besides, the “T50% Cmax” value in series [1] came to 8.08 h; in series [2] it was 8.98 h. In addition, the “F(rel)” value in series [1] (listed as Mexiletine α acetyl lysine amide, Hydrochloride, 1 mg/kg) was determined as 83.1%; in series [2] (Hydrochloride, 1 mg/kg), 60%; in series [2] (listed as Mexiletine acetyl Lysine amide, Hydrochloride, 1 mg/kg) it was 52.6%.

For the compound `Cc1cccc(C)c1OCC(C)NC(=O)[C@@H](N)C(C)(C)O` (stereo partly drawn) [Mexiletine [^α-hydroxy-(5)-valine] amide, Mexiletine [β-hydroxy-(S)-valine] amide], the Cmax of mexiletine in series [1] was 1.68 ng/mL; in series [2], “BLQ”.

Turning to `Cc1cccc(C)c1OCC(C)NC(=O)C(N)C1CC1` (stereo not drawn) [Mexiletine cyclopropyl glycine amide], the Cmax of mexiletine is recorded as 0.703 ng/mL in series [1] and 0.895 ng/mL in series [2].

In the case of `Cc1cccc(C)c1OCC(C)NC(=O)c1ccncc1` (stereo not drawn) [Mexiletine isonicotinic acid amide], the “Bioavailability with respect to mexiletine” value in series [1] is reported as “negligible”.

Regarding `Cc1cccc(C)c1OCC(C)NC(=O)C(N)CO` (stereo not drawn) [Mexiletine serine amide], the “T50% Cmax” value in series [1] was found to be 6.00 h; in series [2], 5.05 h.

As to `Cc1cccc(C)c1NC(=O)C(C)N` (stereo not drawn) [tocamide], in series [3], the “Increase in the speed of stair step movement” value is on record as 2.7 fold, the “Reduction in the time taken for eye opening” value was 7 fold and the “Reduction of hand opening time” value is listed as 4.2 fold.

For `NCC1(CC(=O)O)CCCCC1` [gabapentin], the Bioavailability result in series [4] (900 mg/day gabapentin) is given as “approximately 60%”; in series [4] (1200 mg/day gabapentin), about 47%; in series [4] (2400 mg/day gabapentin) it was about 34%; in series [4] (3600 mg/day gabapentin), about 33%; in series [4] (4800 mg/day gabapentin) it was about 27%.

`Cc1cccc(C)c1OCC(C)NC(=O)C(N)CCCNC(=N)N(C)C.Cl.Cl` (mixture of isomers) [Mexiletine-(S)—N,N-Dimethylarginine Amide Dihydrochloride]: the “pH 7.4, 37° C. 0.1M phosphate buffer: % remaining after 2 h/37° C.” value in series [5] is on record as 99.6%. Further, in series [6], the “Simulated gastric fluid (pH 1.1): % remaining after 2 h/37° C.” value is 99.7% and the “Simulated intestinal fluid (pH 6.8): % remaining after 2 h/37° C.” value was 96.8%.

Consider `Cc1cccc(C)c1OCC(C)NC(=O)[C@@H](N)CCC(N)=O.Cl` (stereo partly drawn) [Mexiletine glutamine amide], for which, in series [1], the “Bioavailability with respect to mexiletine” value was “near complete”, the AUC of mexiletine came to 790 ng·h/mL, the Cmax of mexiletine amounted to 117 ng/mL and the “T50% Cmax” value was 5.60 h. For the same compound, the “F(rel)” value in series [1] is given as 73.5%. Besides, in series [2], the AUC of mexiletine was determined as 649 ng·h/mL, the Cmax of mexiletine is 105 ng/mL, the “T50% Cmax” value is listed as 4.0 h and the “F(rel)” value worked out at 94.1%.

For the compound `Cc1cccc(C)c1OCC(C)NC(=O)[C@@H](N)CC[S+](C)C` (stereo partly drawn) [Mexiletine S-methyl-methionine chloride, Mexiletine-[(S)—S-Methyl-Methionine Chloride] Amide Hydrochloride], the “pH 7.4, 37° C. 0.1M phosphate buffer: % remaining after 2 h/37° C.” value in series [5] is reported as 99.8%. The “T50% Cmax” value in series [1] was found to be 5.92 h. In addition, the “T50% Cmax” value in series [2] came out at 5.99 h. For the same compound, in series [6], the “Simulated gastric fluid (pH 1.1): % remaining after 2 h/37° C.” value is listed as 99.2% and the “Simulated intestinal fluid (pH 6.8): % remaining after 2 h/37° C.” value was 99.4%.

Consider `Cc1cccc(C)c1OCC(C)NC(=O)[C@@H](N)CC(=O)O` (stereo partly drawn) [Mexiletine-(S)-aspartic acid amide, Mexiletine-(S)-Aspartic Acid Amide Hydrochloride], for which the “pH 7.4, 37° C. 0.1M phosphate buffer: % remaining after 2 h/37° C.” value in series [5] is 99.9%. In series [6], the “Simulated gastric fluid (pH 1.1): % remaining after 2 h/37° C.” value was 99.2% and the “Simulated intestinal fluid (pH 6.8): % remaining after 2 h/37° C.” value is 99.9%.

On to `Cc1cccc(C)c1OCC(C)NC(=O)C(N)CN` (stereo not drawn), for which, in series [1], the AUC of mexiletine amounted to 8371 ng·h/mL, the Cmax of mexiletine worked out at 103 ng/mL, the “T50% Cmax” value stood at 10.0 h and the “F(rel)” value was determined as 77.9%. For the same compound, in series [2], the AUC of mexiletine was found to be 801 ng·h/mL, the Cmax of mexiletine was determined as 82.7 ng/mL, the “T50% Cmax” value was determined as 7.88 h and the “F(rel)” value stood at 116%.

With `CNC(=N)NCCC[C@H](N)C(=O)NC(C)COc1c(C)cccc1C` (stereo partly drawn) [Mexiletine (S)-N-methylarginine amide, Mexiletine-(S)—N-Methylarginine Amide Dihydrochloride], the “pH 7.4, 37° C. 0.1M phosphate buffer: % remaining after 2 h/37° C.” value in series [5] was determined as 99.9%. For the same compound, in series [6], the “Simulated gastric fluid (pH 1.1): % remaining after 2 h/37° C.” value was 99.8% and the “Simulated intestinal fluid (pH 6.8): % remaining after 2 h/37° C.” value is 93.6%.

For the compound `Cc1cccc(C)c1OCC(C)NC(=O)[C@@H](N)CCCCN=C(N)N.Cl.Cl` (stereo partly drawn) [Mexiletine homo arginine amide, Mexiletine-(S)-Homoarginine Amide Dihydrochloride], in series [1], the AUC of mexiletine stood at 563 ng·h/mL, the Cmax of mexiletine worked out at 86.9 ng/mL, the “T50% Cmax” value is 5.39 h and the “F(rel)” value is reported as 52.4%. Besides, in series [2], the AUC of mexiletine was determined as 424 ng·h/mL, the Cmax of mexiletine came to 56.8 ng/mL, the “T50% Cmax” value came to 5.13 h and the “F(rel)” value is recorded as 61.5%.

For the compound `Cc1cccc(C)c1OCC(C)NC(=O)C(N)CCCNC(=N)N` (stereo not drawn) [Mexiletine arginine amide], the “T50% Cmax” value in series [1] was 6.5** h; in series [2] it was 4.48 h.

Consider `Cc1cccc(C)c1OCC(C)NC(=O)[C@@H](N)C(C)C.Cl` (stereo partly drawn) [Mexiletine valine amide, Mexiletine-(S)-Valine Amide Hydrochloride], for which, in series [5], the “pH 7.4, 37° C. 0.1M phosphate buffer: % remaining after 2 h/37° C.” value is recorded as 98.8%. Also, the “T50% Cmax” value in series [1] is on record as 5.0** h. Besides, in series [6], the “Simulated gastric fluid (pH 1.1): % remaining after 2 h/37° C.” value is 98.7% and the “Simulated intestinal fluid (pH 6.8): % remaining after 2 h/37° C.” value is listed as 98.3%.

As for `Cc1cccc(C)c1OCC(C)NC(=O)c1cccnc1` (stereo not drawn) [Mexiletine nicotinic acid amide], in series [1], the “Bioavailability with respect to mexiletine” value is given as “negligible” and the Cmax of mexiletine entry is on record as “BLQ”.

For the compound `Cc1cccc(C)c1OCC(C)NC(=O)C(N)CCCNC(N)=O` (stereo not drawn) [Mexiletine citrulline amide], in series [1], the “T50% Cmax” value is given as 3.0** h.

Regarding `Cc1cccc(C)c1OCC(C)NC(=O)CCN` (stereo not drawn) [Mexiletine β alanine amide], the Cmax of mexiletine result in series [1] and in series [2] was “BLQ” throughout.

On to `Cc1cccc(C)c1OCC(C)NC(=O)[C@@H](N)CCCN` (stereo partly drawn) [Mexiletine ornithine amide, Mexiletine-(S)-Ornithine Amide Di-hydrochloride], for which the “pH 7.4, 37° C. 0.1M phosphate buffer: % remaining after 2 h/37° C.” value in series [5] is 99.5%. Moreover, in series [6], the “Simulated gastric fluid (pH 1.1): % remaining after 2 h/37° C.” value is 99.7% and the “Simulated intestinal fluid (pH 6.8): % remaining after 2 h/37° C.” value is listed as 99.8%.

For `Cc1cccc(C)c1OCC(C)NC(=O)[C@@H](N)Cc1ccccc1.Cl` (stereo partly drawn) [Mexiletine phenylalanine amide, Mexiletine-(S)-Phenylalanine Amide Hydrochloride], in series [1], the “T50% Cmax” value is 3.5** h.

In the case of `Cc1cccc(C)c1OCC(C)NC(=O)[C@@H](N)C[S+](C)[O-].O=C(O)C(F)(F)F` (stereo partly drawn) [Mexiletine [(R)-S-methyl-cysteine, Mexiletine [(R)—S-Methyl-Cysteine Sulfoxide] Amide Trifluoroacetate], in series [1], the AUC of mexiletine is 144 ng·h/mL, the Cmax of mexiletine is listed as 59.9 ng/mL, the “T50% Cmax” value is recorded as 1.63 h and the “F(rel)” value is on record as 13.4%. Moreover, in series [2], the AUC of mexiletine stood at 432 ng·h/mL, the Cmax of mexiletine is 62.2 ng/mL and the “T50% Cmax” value is 4.80 h. For the same compound, in series [2] (listed as Mexiletine methyl-cysteine sulfoxide amide, 1 mg/kg), the “F(rel)” value is 62.6%.

As to `Cc1cccc(C)c1OCC(C)NC(=O)[C@@H](NC(=O)[C@@H](N)C(C)C)C(C)C.Cl` (stereo partly drawn) [Mexiletine valine-valine amide, Mexiletine-valine-valine Amide Hydrochloride], in series [1], the “T50% Cmax” value is 4.25** h.

Values taken from patent US20120196933A1, “MEXILETINE PRODRUGS” (priority 2010, published 2012).
